Results reported in publication PMC3118801, “Tyrosine Kinase Syk Non-Enzymatic Inhibitors and Potential Anti-Allergic Drug-Like Compounds Discovered by Virtual and In Vitro Screening” (PLoS ONE, 2011).
Values after ≈ are worked out from the molar mass of the structure shown. Read-outs that look alike come from different tables or passages of the source.

What was measured:
[1] = molecular target: T1, Syk (GST:Syk 6-242 fusion protein) (Homo sapiens, UniProt P43405); test: ELISA-based Antibody Displacement Assay (binding of scFv G4G11 to Syk); conditions: 10 µM small molecule, 100 nM G4G11
T1 construct: Recombinant GST:Syk 6-242 fusion protein [34] was immobilized on an ELISA plate; made in house
Description: To determine the ability of the compounds to affect the binding of scFv G4G11 to Syk in vitro, we tested them individually in an ELISA-based Antibody Displacement Assay (see Materials and Methods). For this purpose, all 1000 compounds were reconstituted in DMSO, and they were tested at a final concentration of 10 µM in PBS. Compound C-13 was reconstituted in DMF and was used in parallel as a control. The capacity of each compound to inhibit the binding of G4G11 to Syk was evaluated in comparison to the binding of G4G11 to Syk in PBS (final concentration of 100 nM) containing the appropriate concentrations of DMSO or DMF.
Recombinant GST:Syk 6-242 fusion protein [34] was immobilized on an ELISA plate at final concentration of 10 µg ml^−1. For the screening assay, small molecules diluted in PBS at final concentration of 10 µM were added to the wells for one hour at RT, before adding myc-tagged scFv G4G11 at final concentration of 100 nM for one additional hour. The binding of G4G11 to Syk was evaluated by adding HRP-conjugated mAb 9E10 which detects the amino acid sequence EQKLISEEDLN of human c-myc protein located at the C-terminal end of the scFv.

Syk [2] = molecular target: T2, Syk (Homo sapiens, UniProt P43405); test: Direct binding to Syk by fluorescence spectroscopy
Description: Direct binding to Syk of a selection of these 85 compounds was investigated using fluorescence spectroscopy.
For each compound, the ChemBridge ID and the cluster to which it belongs are reported. Direct binding to Syk of some compounds was measured using fluorescence spectroscopy (Kd: dissociation constant). Antibody inhibition percentage reflects the capacity of each compound to inhibit the binding of scFv G4G11 to Syk (final concentrations of 10 µM for small molecules and 100 nM for G4G11). The ability of each compound to inhibit the liberation of allergic mediators from mast cells is measured (**: IC50 values of cell degranulation ≥20 µM). Some physicochemical properties computed with FAFDrugs2, as well as the possible ADMET problems detected by our tool are reported. The computations involved: molecular weight (MW), logP, topological polar surface area (tPSA), H-bond acceptors and donors (HBA, HBD). (PDF) Click here for additional data file.

RBL-2H3 mast cells [3] = test: FcεRI-induced β-hexosaminidase release (mast cell degranulation); format: cell-based, rat
Description: The 85 compounds were then tested in a cellular functional assay in order to evaluate their ability to inhibit the liberation of allergic mediators from mast cells. The test is based on the measure of the liberation by exocytosis of the enzyme β-hexosaminidase following the stimulation of the FcεRI, the high affinity receptor for IgE at the surface of mast cells. To this aim, RBL-2H3 mast cells were incubated with each compound for one hour at a final concentration of 20 µM, and β-hexosaminidase release following FcεRI stimulation was measured.
The mouse IgE anti-DNP monoclonal antibody 2682-I was used as hybridoma culture supernatants which contained 1 µg ml^−1 IgE. RBL-2H3 rat basophilic leukaemia cells (ATCC) were maintained as monolayer cultures in RPMI 1640 medium supplemented with 10% fetal bovine serum (Gibco). Measurements of β-hexosaminidase release in RBL-2H3 cells were performed as described, except that after 12–16 h incubation with anti-DNP IgE (0.5 µg ml^−1), cells were incubated for 90 min at 37°C in RPMI medium supplemented with the indicated concentrations of small molecules or DMSO (0.25%). Cells were challenged for 45 min with DNP-BSA (50 ng ml^−1).

RBL-2H3 mast cells [4] = tested on: RBL-2H3 mast cells; design: method as in PMID 18539317; conditions: cited from earlier work
anaphylactic shock = tested on: anaphylactic shock; design: method as in PMID 18539317; conditions: administered orally to mice; cited from earlier work
Syk [5] = molecular target: T2, Syk; design: method as in PMID 18539317; conditions: cited from earlier work
[6] = Solubility measurement in PBS by HPLC; format: physicochemical; conditions: aqueous buffer, kinetic from dmso stock, from 10 mM DMSO stock, 25°C
Description: 4 µl of a 10 mM DMSO stock solution from of each sample were dissolved in 400 µl of PBS and sonicated for 5 minutes. The samples were centrifuged for 15 minutes at 4000 rpm at 25°C, then 250 µl of each sample were transferred to a 96 well plate. 10 µl of each sample were analyzed by HPLC and the sample concentrations were calculated against a series of caffeine standards ranging from 1 to 100 µM.

RBL-2H3 mast cells [7] = test: Ionomycin-induced degranulation as control of the degranulation machinery (toxic effects); format: cell-based, rat; conditions: ionomycin treatment, concentrations up to 10 µM
Description: To address the possible toxic effects of these compounds on degranulation, we performed a dose-dependent experiment in which FcεRI-dependent degranulation of mast cells was performed in parallel with ionomycin-induced degranulation as a control of the degranulation machinery. […] The ADMET profile of our 10 bioactive compounds was analyzed further. […] In addition, the solubility was measured experimentally and the Lipinski “rule of five” descriptors were computed to probe further the molecules from cluster 2 (Table 1).
Figure 5 Compounds 7501888 and 7722851 impair FcεRI-induced mast cell degranulation. β-hexosaminidase release from mast cells was evaluated in comparison to ionomycin-induced degranulation as a control of the machinery.

[8] = Rattus norvegicus, Table 1, RBL-2H3, FcεRI stimulation, β-hexosaminidase release, read-out: IC50 Cell Degranulation
[9] = Table S1, class symbol, read-out: IC50 Cell Degranulation
[10] = Rattus norvegicus, RBL-2H3, Table S1, class symbol, read-out: IC50 Cell Degranulation

| SMILES | Antibody Inhibition [1] [%] | IC50 (RBL-2H3 mast cells [3]; [9]) [µM] | other results |
| --- | --- | --- | --- |
| COC(=O)c1ccccc1-c1ccc(C=C2SC(=S)N(Cc3ccccc3)C2=O)o1 [C-13, methyl 2-{5-[(3-benzyl-4-oxo-2-thioxo-1,3-thiazolidin-5-ylidene)methyl]-2-furyl}benzoate, reference compound] | 81 | – | Kd (Syk [2]; Table 1): 4 µM; IC50 (RBL-2H3 mast cells [3]; [8]): 2 µM; FcεRI-induced mast cell degranulation in vitro (RBL-2H3 mast cells [4]): inhibits; anaphylactic shock in vivo (anaphylactic shock): inhibits; effects on the enzymatic activity of Syk (Syk [5]): no effects |
| COc1ccccc1C(=O)Nc1ccc(-c2nnc(SCC(=O)c3ccccc3)n2C)cc1 [compound 6282824] | 67.5 | – | Kd (Syk [2]; Table 1): 5.6 µM; IC50 (RBL-2H3 mast cells [3]; [8]): 5 µM; solubility at 5 min [6]: 4.5 µM (≈ 2.06 µg/mL) |
| COc1ccc(S(=O)(=O)N(CCc2ccccc2)CC(=O)Nc2ccc(C(N)=O)cc2)cc1 [compound 6498669] | 63 | ≥ 20 | Kd (Syk [2]; Table S1): 0.8 µM |
| COc1ccc(OC)c(C2C(=C(O)c3ccc(C)cc3)C(=O)C(=O)N2Cc2cccnc2)c1 (stereo not shown) [compound 6652639] | 70.5 | ≥ 20 | – |
| COc1ccc(C2C(=C(O)c3ccc(F)cc3)C(=O)C(=O)N2CCN2CCOCC2)cc1OC (stereo not shown) [compound 6654239] | 50 | ≥ 20 | – |
| N#CC1=C(N)Oc2[nH]nc(-c3ccccc3)c2C1c1cccc(OC(=O)c2ccco2)c1 (stereo not shown) [compound 6669449] | 42 | – | IC50 (RBL-2H3 mast cells [3]; [10]): ≥ 20 µM |
| COc1ccc(C2C(=C(O)c3ccc(F)cc3)C(=O)C(=O)N2CCN2CCOCC2)c(OC)c1 (stereo not shown) [compound 6670673] | 50 | ≥ 20 | – |
| COc1ccc(C2C(=C(O)c3ccc(C)cc3)C(=O)C(=O)N2CCN2CCOCC2)cc1 (stereo not shown) [compound 6670747] | 50 | ≥ 20 | – |
| COc1ccc(C2C(C(=O)c3cccs3)=C(O)C(=O)N2CCN2CCOCC2)cc1OC (stereo not shown) [compound 6677533] | 50 | – | IC50 (RBL-2H3 mast cells [3]; [10]): ≥ 20 µM |
| COc1cc(NS(=O)(=O)c2ccc(NC(C)=O)cc2)c(OC)cc1NC(=O)c1ccccc1 [compound 6853966] | 58 | ≥ 20 | – |
| Cc1ccc(-n2c3c(cc(C(=O)NC4CC(C)(C)NC(C)(C)C4)c2=O)C(=O)CC(C)(C)C3)cc1 [compound 6866968] | 57.5 | ≥ 20 | – |
| COc1cccc(C2C(=C(O)c3ccc(C)cc3)C(=O)C(=O)N2CCCN2CCOCC2)c1 (stereo not shown) [compound 6882059] | 79.5 | ≥ 20 | Kd (Syk [2]; Table S1): 9.4 µM |
| COc1cccc(C2C(=C(O)c3ccccc3)C(=O)C(=O)N2CCCN2CCOCC2)c1OC (stereo not shown) [compound 6891745] | 27.5 | ≥ 20 | – |
| O=C(Nc1ccccc1C(=O)N1CCCC1)c1ccc(CN2CCc3ccccc3C2)cc1 [compound 7199725] | 25 | ≥ 20 | – |
| Cc1ccc(-c2nnc(Nc3cccc(O)c3)c3ccccc23)cc1S(=O)(=O)NC(C)(C)CO [compound 7238569] | 32 | ≥ 20 | – |
| CCOC(=O)c1ccc(NC(=O)CSc2nnc(-c3ccco3)c(-c3ccco3)n2)cc1 [compound 7495334] | 43 | – | Kd (Syk [2]; Table 1): 1.6 µM; IC50 (RBL-2H3 mast cells [3]; [8]): 10 µM; solubility at 5 min [6]: 35.2 µM (≈ 15.9 µg/mL) |
| COc1cc(-c2nnc(SCC(=O)Nc3ccc(Cl)cc3)n2CCc2ccccc2)cc(OC)c1OC [compound 7501888] | 40 | – | Kd (Syk [2]; Table 1): 8.2 µM; IC50 (RBL-2H3 mast cells [3]; [8]): 4 µM; solubility at 5 min [6]: 6 µM (≈ 3.23 µg/mL); toxic effect on mast cells responses (RBL-2H3 mast cells [7]): no major toxic effect |
| CCOC(=O)c1ccc(NC(=O)CC2C(=O)N(c3ccc(Cl)cc3)C(=S)N2Cc2cccnc2)cc1 (stereo not shown) [compound 7722851] | 39.5 | – | Kd (Syk [2]; Table S1): 21.8 µM; IC50 (RBL-2H3 mast cells [3]; Rattus norvegicus, RBL-2H3, FcεRI-dependent degranulation of mast cells, read-out: IC50 (degranulation)): 4 µM; toxic effect on mast cells responses (RBL-2H3 mast cells [7]): no major toxic effect |
| CCOc1ccc(NC(=O)CC2C(=O)N(c3ccc(OC)cc3)C(=S)N2CCN2CCOCC2)cc1 (stereo not shown) [compound 7722914] | 19 | – | Kd (Syk [2]; Table S1): 15.6 µM; IC50 (RBL-2H3 mast cells [3]; Rattus norvegicus, RBL-2H3, Table S1, numeric values, read-out: IC50 Cell Degranulation): 15 µM |
| C=CCn1c(SCC(=O)Nc2cccc(OC)c2)nnc1C(C)NC(=O)c1ccccc1 (stereo not shown) [compound 7752193] | 35 | – | Kd (Syk [2]; Table 1): 8 µM; IC50 (RBL-2H3 mast cells [3]; [8]): 10 µM; solubility at 5 min [6]: 0.3 µM (≈ 0.135 µg/mL) |
| C=CCn1c(CNC(=O)c2cccc(C)c2)nnc1SCC(=O)Nc1cccc(C(=O)OC(C)C)c1 [compound 7783660] | 27 | – | Kd (Syk [2]; Table 1): 4.8 µM; IC50 (RBL-2H3 mast cells [3]; [8]): 10 µM; solubility at 5 min [6]: 12.9 µM (≈ 6.55 µg/mL) |
| COC(=O)c1ccc(NC(=O)CN(c2cccc(OC)c2)S(=O)(=O)c2ccccc2)cc1 [compound 7787455] | 20 | – | IC50 (RBL-2H3 mast cells [3]; [10]): ≥ 20 µM |
